Where a SMILES comes first, the peptide text is derived from it. [ ]: non-standard residue; d: D form. The star is where a group is joined. Dolaproine = CO[C@@H]([C@@H]1CCCN1)[C@@H](C)C(=O)O; Dil = CC[C@H](C)[C@H](NC)[C@@H](CC(=O)O)OC; X1 = C[C@@H](N*)[C@@H](O)c1ccccc1; NMeV = CN[C@H](C(=O)O)C(C)C
How the values were obtained:
human macrophages = test: Viability of payload-treated human macrophages (Calcein AM / Ethidium Homodimer-1); format: cell-based; conditions: free payload; 48-hour incubation; calcein-positive, Ethidium Homodimer-1 negative cells
Method: Macrophage differentiation from CD14+ monocytes: Human peripheral blood mononuclear cells (PBMCs) were isolated from blood donors, who provided informed consent, using density gradient centrifugation. Monocytes were then purified from PBMCs utilizing a CD14 selection kit (Stemcell) according to the manufacturer's instructions. The isolated monocytes were differentiated into macrophages by culturing in RPMI 1640 medium supplemented with 10% FBS and 100 ng/mL macrophage colony-stimulating factor (M-CSF) for 5 days.
Viability assay with Calcein AM: To prepare the viability assay with Calcein AM for flow cytometry, 5 μL of Calcein AM (Component A) and 20 μL of Ethidium Homodimer-1 (Component B) was added to 10 mL of DPBS. Cells were centrifuged at 450×G for 5 minutes to remove the culture medium, and 100-200 μL of the staining solution was added directly to the cells and incubated for 30 minutes at room temperature (20-25° C.). After the incubation, cells were centrifuged at 450×G for 5 minutes to remove the supernatant, and resuspended in 150 μL of DPBS. Cells were analyzed by flow cytometry.

[1] = tested on: osteoclast differentiation; test: Osteoclast differentiation in vitro (TRACP 5b in culture medium); format: cell-based; conditions: relative to baseline levels; culture medium at day 7 (FIG. 46)

CC[C@H](C)[C@@H]([C@@H](CC(=O)N1CCC[C@H]1[C@H](OC)[C@@H](C)C(=O)N[C@H](C)[C@@H](O)c1ccccc1)OC)N(C)C(=O)[C@@H](NC(=O)[C@@H](NC)C(C)C)C(C)C [MMAE, monomethylauristatin E] (H-[NMeV]V[Dil][Dolaproine]-X1)
loss of cell viability of human macrophages (human macrophages): at a lower concentration than Exatecan

denosumab: control that reduced osteoclast differentiation [reference compound]
effect on osteoclast differentiation (TRACP 5b) [1]: reduced differentiation

Reference: patent publication US20250361297A1, “ANTI- SIGLEC-15 BINDING MOLECULES AND METHODS OF USE” (ADAPTAM THERAPEUTICS, S.L., priority 2024, published 2025)
